Values quoted from earlier work, collected in PMC12154426, “TPP-Based Nanovesicles Kill MDR Neuroblastoma Cells and Induce Moderate ROS Increase, While Exerting Low Toxicity Towards Primary Cell Cultures: An In Vitro Study” (International Journal of Molecular Sciences, 2025).
Like-named read-outs stand apart in the source and are kept apart here.

Columns and labels:
A-375 cancer cells = tested on: A-375 cancer cells; set-up: method as in PMID 28151482; conditions: 24 h exposure; 30 µM vemurafenib, 50 µM TRAM-34, or their combination; cited from earlier work
[1] = set-up: method as in PMID 36084362; conditions: MFC-7, 24 h exposure, cited from earlier work
Hela = tested on: Hela; set-up: method as in PMID 36084362; conditions: 24 h exposure, cited from earlier work

Compound	ROS increase with respect to the control (A-375 cancer cells)	IC50 ([1]; PDT/SDT) [µM]	IC50 ([1]; PDT) [µM]	IC50 ([1]; SDT) [µM]	IC50 (Hela; PDT/SDT) [µM]	IC50 (Hela; PDT) [µM]	IC50 (Hela; SDT) [µM]
Clc1ccccc1C(c1ccccc1)(c1ccccc1)n1cccn1 [TRAM-34]	~30%	–	–	–	–	–	–
2,9,16,23-tetrakis(N-(N-butyl-4-triphenyl-phosphonium)-pyridine-4-yloxy) Zn(II) Pc [compound 3]	–	13.2	43.3	18.2	12.7	21.8	14.3
CCCS(=O)(=O)Nc1ccc(F)c(C(=O)c2c[nH]c3ncc(-c4ccc(Cl)cc4)cc23)c1F [vemurafenib]	about 38%	–	–	–	–	–	–
2,9,16,23-tetrakis-(N-(N-butyl-4-triphenyl-phosphonium)-morpholino) Zn(II) Pc [compound 4]	–	15.5	45	20.5	14.4	25.6	17.2
